We go through 12 compounds from patent US12503438B2, “Compounds for the treatment of kinase-dependent disorders” (Exelixis, Inc., priority 2019, dated 2025).

Format in all cases: cell-based
One test concerns the target Met (Homo sapiens, UniProt P08581). Description: Met autophosphorylation ELISA in PC-3 cells. The note with it: cellular activity, HGF-stimulated, phospho-Met ELISA, read-out: c-Met IC50. Set-up: endogenous in cells; host or cells: PC-3 prostate cancer cells (ATCC #CRL-1435). As to the method: PC-3 prostate cancer cells (ATCC #CRL-1435) were seeded at 4×10^4 cells/well onto 24-well plates (Greiner #662165), in DMEM (Thermo Fisher #11995-040) containing 10% FBS (Thermo Fisher #26140-079), 1% MEM NEAA (Thermo Fisher #11140-050), 1% GlutaMax (Thermo Fisher #35050-061), and 1% Penicillin Streptomycin (Thermo Fisher #15140-122). PC-3 cells were incubated at 37° C., 5% CO2 for 24 h and then starved for 3 h in serum-free medium. Test compounds were serially diluted to produce an 8-point dose curve in fresh serum-free medium to a final concentration of 0.3% DMSO (vehicle) and added to the cells and incubated for 1 h. Cells were then stimulated with 100 ng/mL recombinant human HGF (R&D Systems #294-HG-250) for 10 min, washed with cold PBS and immediately lysed with 130 μL of cold 1× lysis buffer [20 mM Tris, 137 mM sodium chloride, 2 mM EDTA, 10% glycerol, 1% NP-40 alternative, 1 mM activated sodium orthovanadate, 1 mM PefaBloc SC (Sigma-Aldrich #11429868001), protease/phosphatase inhibitor tablet (Thermo Fisher #A32959)]. Lysates were clarified by centrifugation and 100 μL/well added into the PathScan phospho-Met (panTyr) Sandwich ELISA (Cell Signaling Technology #7333). Assay was performed according to manufacturer's instructions. Positive control wells (100% activity) contained HGF-stimulated, DMSO-treated cell lysates. Negative control wells (0% activity) contained HGF-stimulated, reference inhibitor-treated cell lysates. IC50 values were calculated by nonlinear regression analysis using a 4-parameter logistic curve fit in ActivityBase XE (IDBS).

In another test the target is KDR (Homo sapiens, UniProt P35968). Put plainly: KDR autophosphorylation ELISA in HUVEC cells. Set-up: endogenous in cells; host or cells: HUVEC (Lonza #C2519A). The note with it: cellular activity, VEGF165-stimulated, phospho-KDR ELISA. As to the method: Human umbilical vein endothelial cells or HUVEC (Lonza #C2519A) were seeded at 2×10^4 cells/well onto 96-well plates (Corning #3904), in EGM-2 growth medium (Lonza #CC-3162) containing 1% Penicillin Streptomycin (Thermo Fisher #15140-122). HUVEC cells were incubated at 37° C., 5% CO2 for 24 h and then starved for 24 h in serum-free EBM-2 basal medium (Lonza #CC-3156) containing 1% Penicillin Streptomycin. Test compounds were serially diluted to produce an 8-point dose curve in fresh serum-free medium to a final concentration of 0.3% DMSO (vehicle) and added to the cells and incubated for 1 h. Cells were then stimulated with 100 ng/mL recombinant human VEGF165 (R&D Systems #293-VE-500) for 5 min, washed with cold PBS, and immediately lysed with 130 μL of cold 1× lysis buffer [20 mM Tris, 137 mM sodium chloride, 2 mM EDTA, 10% glycerol, 1% NP-40 alternative, 1 mM activated sodium orthovanadate, 1 mM PefaBloc SC (Sigma-Aldrich #11429868001), protease/phosphatase inhibitor tablet (Thermo Fisher #A32959)]. Lysates were collected and 100 μL/well added into the human phospho-KDR DuoSet IC ELISA (R&D Systems #DYC1766-2). Assay was performed according to manufacturer's instructions and sample phospho-KDR concentrations were extrapolated using human phospho-KDR control (R&D Systems #841421) as a standard. Positive control wells (100% activity) contained VEGF165-stimulated, DMSO-treated cell lysates. Negative control wells (0% activity) contained non-stimulated cell lysates. IC50 values were calculated by nonlinear regression analysis using a 4-parameter logistic curve fit in ActivityBase XE (IDBS).
KDR, sequence (P35968 20-1356): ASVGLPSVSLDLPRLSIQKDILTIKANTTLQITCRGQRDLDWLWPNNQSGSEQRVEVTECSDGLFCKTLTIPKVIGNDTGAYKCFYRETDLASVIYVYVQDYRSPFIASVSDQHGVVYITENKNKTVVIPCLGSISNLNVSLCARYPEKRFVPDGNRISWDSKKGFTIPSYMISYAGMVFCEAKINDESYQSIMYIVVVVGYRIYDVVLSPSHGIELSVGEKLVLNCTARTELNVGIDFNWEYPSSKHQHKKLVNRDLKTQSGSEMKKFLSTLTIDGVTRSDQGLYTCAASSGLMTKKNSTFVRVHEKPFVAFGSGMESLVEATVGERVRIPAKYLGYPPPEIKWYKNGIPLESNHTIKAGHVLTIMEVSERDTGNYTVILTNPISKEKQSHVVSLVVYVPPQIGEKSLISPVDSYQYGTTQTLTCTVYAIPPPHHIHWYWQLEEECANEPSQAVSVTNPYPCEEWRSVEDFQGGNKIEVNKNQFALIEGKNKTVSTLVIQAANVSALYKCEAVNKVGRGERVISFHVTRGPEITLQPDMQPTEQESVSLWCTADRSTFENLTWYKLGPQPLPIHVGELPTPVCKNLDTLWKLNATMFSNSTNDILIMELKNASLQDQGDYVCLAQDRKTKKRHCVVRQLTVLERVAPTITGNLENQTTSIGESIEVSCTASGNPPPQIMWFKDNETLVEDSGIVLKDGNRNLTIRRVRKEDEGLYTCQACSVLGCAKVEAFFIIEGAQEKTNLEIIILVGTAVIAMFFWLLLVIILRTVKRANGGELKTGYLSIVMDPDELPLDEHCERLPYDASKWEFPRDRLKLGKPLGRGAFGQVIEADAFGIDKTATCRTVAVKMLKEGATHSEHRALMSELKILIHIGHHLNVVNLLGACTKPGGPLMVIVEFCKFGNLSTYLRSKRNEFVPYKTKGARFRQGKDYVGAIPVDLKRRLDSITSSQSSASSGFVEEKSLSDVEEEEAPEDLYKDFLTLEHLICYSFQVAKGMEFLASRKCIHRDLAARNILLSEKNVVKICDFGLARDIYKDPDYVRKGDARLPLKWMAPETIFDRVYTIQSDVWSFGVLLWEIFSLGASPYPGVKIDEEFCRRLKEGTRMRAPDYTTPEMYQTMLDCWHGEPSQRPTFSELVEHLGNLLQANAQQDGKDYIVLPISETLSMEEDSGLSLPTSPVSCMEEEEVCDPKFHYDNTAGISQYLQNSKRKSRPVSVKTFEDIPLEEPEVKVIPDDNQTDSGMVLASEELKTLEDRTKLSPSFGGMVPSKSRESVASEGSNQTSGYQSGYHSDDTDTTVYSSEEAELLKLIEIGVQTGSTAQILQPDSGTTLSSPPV
Background: An ELISA detects its analyte on a solid surface through an enzyme-linked reagent.

Another test deals with T1, AXL (Homo sapiens, UniProt P30530).
T1 construct: endogenous in cells; host or cells: A-172 glioblastoma cells (ATCC #CRL-1620)
T1 sequence (P30530 26-894): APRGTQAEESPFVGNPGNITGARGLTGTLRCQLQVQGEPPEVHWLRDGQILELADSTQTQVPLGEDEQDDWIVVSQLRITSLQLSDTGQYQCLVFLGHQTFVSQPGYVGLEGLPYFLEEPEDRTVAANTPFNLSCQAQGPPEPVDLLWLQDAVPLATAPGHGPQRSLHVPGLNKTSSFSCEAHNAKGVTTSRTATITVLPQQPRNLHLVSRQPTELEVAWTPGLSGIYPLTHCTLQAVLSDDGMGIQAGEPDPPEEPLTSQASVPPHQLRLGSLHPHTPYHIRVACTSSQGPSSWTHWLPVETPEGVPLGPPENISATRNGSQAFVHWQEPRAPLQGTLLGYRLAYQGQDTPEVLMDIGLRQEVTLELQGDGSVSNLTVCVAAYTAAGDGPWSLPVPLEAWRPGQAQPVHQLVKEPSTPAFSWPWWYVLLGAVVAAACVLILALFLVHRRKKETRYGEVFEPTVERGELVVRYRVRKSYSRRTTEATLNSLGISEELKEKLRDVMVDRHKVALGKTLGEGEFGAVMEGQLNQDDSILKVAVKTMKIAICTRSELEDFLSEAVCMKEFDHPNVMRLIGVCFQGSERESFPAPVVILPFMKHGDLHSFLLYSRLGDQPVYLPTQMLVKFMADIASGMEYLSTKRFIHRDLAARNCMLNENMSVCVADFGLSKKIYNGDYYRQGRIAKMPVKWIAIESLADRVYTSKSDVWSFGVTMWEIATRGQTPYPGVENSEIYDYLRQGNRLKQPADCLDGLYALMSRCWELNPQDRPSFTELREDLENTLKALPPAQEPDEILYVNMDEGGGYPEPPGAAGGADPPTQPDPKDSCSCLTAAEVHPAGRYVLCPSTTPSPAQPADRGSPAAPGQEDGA
Description: AXL autophosphorylation ELISA in A-172 cells. The note with it: cellular activity, Gas6-stimulated, phospho-AXL ELISA. On the procedure:
A-172 glioblastoma cells (ATCC #CRL-1620) were seeded at 2.5×10^5 cells/well onto 24-well plates (Greiner #662165), in DMEM (Thermo Fisher #11995-040) containing 10% FBS (Thermo Fisher #26140-079), 1% MEM NEAA (Thermo Fisher #11140-050), 1% GlutaMax (Thermo Fisher #35050-061) and 1% Penicillin Streptomycin (Thermo Fisher #15140-122). A-172 cells were incubated at 37° C., 5% CO2 for 24 h and then starved for 24 h in serum-free medium. Test compounds were serially diluted to produce an 8-point dose curve in fresh serum-free medium to a final concentration of 0.3% DMSO (vehicle) and added to the cells and incubated for 1 h. Cells were then stimulated with 1 μg/mL recombinant human Gas6 (R&D Systems #885-GSB-500) for 15 min, washed with cold PBS and immediately lysed with 150 μL of cold 1× lysis buffer [20 mM Tris, 137 mM sodium chloride, 2 mM EDTA, 10% glycerol, 1% NP-40 alternative, 1 mM activated sodium orthovanadate, 1 mM PefaBloc SC (Sigma-Aldrich #11429868001), protease/phosphatase inhibitor tablet (Thermo Fisher #A32959)]. Lysates were collected and 100 μL/well added into the human phospho-AXL DuoSet IC ELISA (R&D Systems #DYC2228-2). Assay was performed according to manufacturer's instructions and sample phospho-AXL concentrations were extrapolated using human phospho-AXL control (R&D Systems #841645) as a standard. Positive control wells (100% activity) contained Gas6-stimulated, DMSO-treated cell lysates. Negative control wells (0% activity) contained Gas6-stimulated, reference inhibitor-treated cell lysates. IC50 values were calculated by nonlinear regression analysis using a 4-parameter logistic curve fit in ActivityBase XE (IDBS).

Met, sequence (P08581 25-1390): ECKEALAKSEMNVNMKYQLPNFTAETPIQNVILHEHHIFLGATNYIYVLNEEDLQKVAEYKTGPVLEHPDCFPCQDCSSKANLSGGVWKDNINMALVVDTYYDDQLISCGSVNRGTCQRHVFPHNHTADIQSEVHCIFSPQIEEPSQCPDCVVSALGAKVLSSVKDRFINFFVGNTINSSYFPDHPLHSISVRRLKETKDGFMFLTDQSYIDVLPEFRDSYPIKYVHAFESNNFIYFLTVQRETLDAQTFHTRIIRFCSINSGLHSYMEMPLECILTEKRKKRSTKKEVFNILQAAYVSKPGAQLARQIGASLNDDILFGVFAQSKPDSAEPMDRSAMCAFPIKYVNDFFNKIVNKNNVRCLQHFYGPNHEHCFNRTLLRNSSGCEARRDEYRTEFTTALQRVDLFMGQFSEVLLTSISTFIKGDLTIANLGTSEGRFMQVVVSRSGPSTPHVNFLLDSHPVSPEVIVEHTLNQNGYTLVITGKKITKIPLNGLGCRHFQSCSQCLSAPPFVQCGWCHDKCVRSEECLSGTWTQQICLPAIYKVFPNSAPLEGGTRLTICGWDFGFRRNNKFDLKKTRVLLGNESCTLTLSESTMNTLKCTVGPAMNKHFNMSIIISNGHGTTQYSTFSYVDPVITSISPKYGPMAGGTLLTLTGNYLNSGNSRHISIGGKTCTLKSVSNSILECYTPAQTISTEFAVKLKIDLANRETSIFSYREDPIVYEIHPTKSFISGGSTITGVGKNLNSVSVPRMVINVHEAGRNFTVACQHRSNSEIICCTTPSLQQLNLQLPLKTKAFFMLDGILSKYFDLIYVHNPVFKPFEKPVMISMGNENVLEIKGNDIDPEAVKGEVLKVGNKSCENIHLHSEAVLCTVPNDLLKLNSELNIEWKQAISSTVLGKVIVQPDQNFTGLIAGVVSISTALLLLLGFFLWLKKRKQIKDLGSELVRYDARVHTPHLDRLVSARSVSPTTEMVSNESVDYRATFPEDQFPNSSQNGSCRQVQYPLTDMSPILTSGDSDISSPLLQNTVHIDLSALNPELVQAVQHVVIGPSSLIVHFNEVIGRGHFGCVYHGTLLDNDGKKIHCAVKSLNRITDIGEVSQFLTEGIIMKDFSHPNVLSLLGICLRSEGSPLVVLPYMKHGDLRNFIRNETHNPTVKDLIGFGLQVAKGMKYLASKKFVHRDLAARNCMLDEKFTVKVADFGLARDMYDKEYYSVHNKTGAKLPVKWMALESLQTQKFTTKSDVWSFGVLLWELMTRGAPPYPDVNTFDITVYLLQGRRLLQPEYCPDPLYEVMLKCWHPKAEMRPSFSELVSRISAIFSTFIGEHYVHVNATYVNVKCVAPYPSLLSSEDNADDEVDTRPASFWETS

As a reminder, the IC50 is the concentration that inhibits the measured activity by half. Consider `O=C(Nc1ccc(F)cc1)C1(C(=O)Nc2ccc(Oc3ccnc4cc(C5CCOC5)ccc34)cc2)CC1` (single isomer, unassigned) [Compound 89, 1-N′-(4-Fluorophenyl)-1-N-[4-[7-[oxolan-3-yl]quinolin-4-yl]oxyphenyl]cyclopropane-1,1-dicarboxamide], for which the 50% inhibitory concentration (IC50) at Met was 10 to 100 nM; against KDR, over 300 nM; at AXL, over 300 nM.
With `Cc1cc2c(Oc3ccc(NC(=O)C4(C(=O)Nc5ccc(F)cc5)CC4)cc3)ccnc2cc1-c1cn[nH]c1` [Compound 106, 1-N′-(4-Fluorophenyl)-1-N-[4-[6-methyl-7-(1H-pyrazol-4-yl)quinolin-4-yl]oxyphenyl]cyclopropane-1,1-dicarboxamide], the IC50 on Met is 10 to 100 nM; on KDR it was at most 10 nM; against AXL, 10 to 100 nM.
For `O=C(Nc1ccc(F)cc1)C1(C(=O)Nc2ccc(Oc3ccnc4cc(-c5ccc(C6CC6)nc5)ccc34)cc2)CC1` [Compound 43, 1-N-[4-[7-(6-Cyclopropylpyridin-3-yl)quinolin-4-yl]oxyphenyl]-1-N′-(4-fluorophenyl)cyclopropane-1,1-dicarboxamide], the IC50 on Met lay in the range of 100 to 300 nM; against KDR, 10 to 100 nM; at AXL, 100 to 300 nM.
Take `Cc1cc(-c2ccc3c(Oc4ccc(NC(=O)C5(C(=O)Nc6ccc(F)cc6)CC5)cc4)ccnc3c2)cc(C)n1` [Compound 32, 1-N-[4-[7-(2,6-Dimethylpyridin-4-yl)quinolin-4-yl]oxyphenyl]-1-N′-(4-fluorophenyl)cyclopropane-1,1-dicarboxamide]: the IC50 at Met lay in the range of 10 to 100 nM.
For `O=C(Nc1ccc(F)cc1)C1(C(=O)Nc2ccc(Oc3ccnc4cc(C5CCOC5)ccc34)cc2)CC1` (single isomer, unassigned) [Compound 88, 1-N′-(4-Fluorophenyl)-1-N-[4-[7-[oxolan-3-yl]quinolin-4-yl]oxyphenyl]cyclopropane-1,1-dicarboxamide], the results for the IC50 at Met, on KDR and against AXL were 10 to 100 nM, over 300 nM and over 300 nM, respectively.
On to `O=C(Nc1ccc(F)cc1)C1(C(=O)Nc2ccc(Oc3ccnc4cc(-c5cncc(C(F)(F)F)c5)ccc34)cc2)CC1` [Compound 48, 1-N′-(4-Fluorophenyl)-1-N-[4-[7-[5-(trifluoromethyl)pyridin-3-yl]quinolin-4-yl]oxyphenyl]cyclopropane-1,1-dicarboxamide], for which, on Met, the half-inhibitory concentration (IC50) lay in the range of 100 to 300 nM.
In the case of `O=C(Nc1ccc(F)cc1)C1(C(=O)Nc2ccc(Oc3ccnc4cc(-c5ccc(C(F)(F)F)nc5)ccc34)cc2)CC1` [Compound 35, 1-N′-(4-Fluorophenyl)-1-N-[4-[7-[6-(trifluoromethyl)pyridin-3-yl]quinolin-4-yl]oxyphenyl]cyclopropane-1,1-dicarboxamide], the IC50 at Met is 100 to 300 nM.
The same measure, in the same setting: the figure for `CN(C(=O)C1(C(=O)Nc2ccc(Oc3ccnc4cc(-c5cnn(C(F)F)c5)ccc34)cc2)CC1)c1ccc(F)cc1` [Compound 126, 1-N-[4-[7-[1-(Difluoromethyl)pyrazol-4-yl]quinolin-4-yl]oxyphenyl]-1-N′-(4-fluorophenyl)-1-N′-methylcyclopropane-1,1-dicarboxamide] is over 300 nM.
With `O=C(Nc1ccc(F)cc1)C1(C(=O)Nc2ccc(Oc3ccnc4cc(-c5ccnc(C(F)(F)F)c5)ccc34)cc2)CC1` [Compound 36, 1-N′-(4-Fluorophenyl)-1-N-[4-[7-[2-(trifluoromethyl)pyridin-4-yl]quinolin-4-yl]oxyphenyl]cyclopropane-1,1-dicarboxamide], on Met, the IC50 was in the range of 100 to 300 nM.
With `O=C(Nc1ccc(F)cc1)C1(C(=O)Nc2ccc(Oc3ccnc4cc(-c5cc(C(F)(F)F)[nH]n5)ccc34)cc2)CC1` [Compound 100, 1-N′-(4-Fluorophenyl)-1-N-[4-[7-[5-(trifluoromethyl)-1H-pyrazol-3-yl]quinolin-4-yl]oxyphenyl]cyclopropane-1,1-dicarboxamide], at Met, the 50% inhibitory concentration (IC50) fell in the range of 100 to 300 nM.
Turning to `O=C(Nc1ccc(F)cc1)C1(C(=O)Nc2ccc(Oc3ccnc4cc(-c5cnc6[nH]ccc6c5)ccc34)cc2)CC1` [Compound 44, 1-N′-(4-Fluorophenyl)-1-N-[4-[7-(1H-pyrrolo[2,3-b]pyridin-5-yl)quinolin-4-yl]oxyphenyl]cyclopropane-1,1-dicarboxamide], on Met, the half-inhibitory concentration (IC50) fell in the range of 100 to 300 nM.
In the case of `O=C(Nc1ccc(F)cc1)C1(C(=O)Nc2ccc(Oc3ccnc4cc(-c5ccc(N6CCCC6)nc5)ccc34)cc2)CC1` [Compound 49, 1-N′-(4-Fluorophenyl)-1-N-[4-[7-(6-pyrrolidin-1-ylpyridin-3-yl)quinolin-4-yl]oxyphenyl]cyclopropane-1,1-dicarboxamide], the IC50 at Met and on AXL was 100 to 300 nM throughout.
